Measurements as given in patent publication US11696914B1 (priority 2019, dated 2023).
Values joined by “and” are separate entries in the source; they are usually repeats but may differ in a detail not shown here. Equal values may be shown once. Read-outs that look alike come from different tables or passages of the source.

How the values were obtained:
Vaccinia Virus = assay: microbe, parasite or virus in culture; assay type: cell-based; settings: Orthopoxvirus vaccinia
Dengue Virus 2 = assay: microbe, parasite or virus in culture; assay type: cell-based; settings: Vero 76
Zika virus [1] = assay: microbe, parasite or virus in culture; assay type: cell-based; settings: Huh-7
SARS-CoV-2 Spike RBD = SARS-CoV-2 Spike RBD (Severe acute respiratory syndrome coronavirus 2, UniProt P0DTC2); assay type: binding
[2] = mouse, microsomes
Zika virus [3] = assay: microbe, parasite or virus in culture; assay type: cell-based; settings: Vero 76
in vitro [4] = settings: African green monkey
Hepatitis C virus = assay: microbe, parasite or virus in culture; assay type: cell-based; settings: Huh-7
[5] = tested on: Vesicular Stomatitis Virus (VSV) pseudotyped with EBOV glycoprotein; assay: microbe, parasite or virus in culture; assay type: cell-based, Ebola virus; settings: HeLa, read-out: IC50, inhibition of EBOV-VSV pseudovirus entry
[6] = tested on: Ebola virus/H.sapiens-tc/COD/1995/Kikwit-9510621 (EBOV/Kik); assay: microbe, parasite or virus in culture; assay type: cell-based; settings: Zaire ebolavirus, HeLa
[7] = tested on: Respiratory synactial virus; assay: organism not typed; assay type: cell-based; settings: MA104
[8] = mouse, microsomes; cited from earlier work
HepG2 2.2.15 = settings: human
Hartley guinea pigs = settings: both, guinea pig, in vivo
MERS coronavirus = assay: microbe, parasite or virus in culture; assay type: cell-based; settings: Middle East respiratory syndrome-related coronavirus, Vero 76
in vitro [9] = settings: mouse
[10] = tested on: Marburg virus/H.sapiens-tc/AGO/2005/Ang-1379v (MARV/Ang); assay: organism not typed; assay type: cell-based; settings: HeLa
Yellow Fever virus = assay: microbe, parasite or virus in culture; assay type: cell-based; settings: Vero 76
Poliovirus 3 = assay: microbe, parasite or virus in culture; assay type: cell-based; settings: Enterovirus C, Vero 76
SARS-CoV-2 = assay: microbe, parasite or virus in culture; assay type: cell-based
Norovirus = assay: microbe, parasite or virus in culture; assay type: cell-based; settings: HG23
Tacaribe virus = assay: microbe, parasite or virus in culture; assay type: cell-based; settings: Mammarenavirus tacaribeense, Vero
[11] = tested on: murine hepatitis virus (MHV); assay: microbe, parasite or virus in culture; assay type: cell-based; settings: Murine coronavirus, read-out: IC50 versus murine hepatitis virus (MHV)
in vitro [12] = settings: human
[13] = tested on: Venezuelian equine encephalitis virus; assay: microbe, parasite or virus in culture; assay type: cell-based; settings: Venezuelan equine encephalitis virus, Vero 76
Hepatitis B virus = assay: microbe, parasite or virus in culture; assay type: cell-based; settings: HepG2 2.2.15
[14] = male, Hartley, guinea pig, in vivo
[15] = microsomes
Chikungunya virus = assay: microbe, parasite or virus in culture; assay type: cell-based; settings: Vero 76
Rift Valley fever virus = assay: microbe, parasite or virus in culture; assay type: cell-based; settings: Vero 76
Herpes Simplex Virus 1 = assay: microbe, parasite or virus in culture; assay type: cell-based; settings: Human alphaherpesvirus 1
HeLa cells = settings: human
Vero = settings: African green monkey
Murine norovirus = assay: microbe, parasite or virus in culture; assay type: cell-based; settings: Norwalk virus, RAW267.4
Nipah virus = assay: microbe, parasite or virus in culture; assay type: cell-based; settings: Henipavirus nipahense, read-out: IC50 against Nipah virus
in vitro [16] = settings: dog
[17] = tested on: Ebola virus/H.sapiens-tc/GIN/2014/Makona-005 (EBOV/Mak); assay: microbe, parasite or virus in culture; assay type: cell-based; settings: Zaire ebolavirus, HeLa
Influenza A virus H1N1 = assay: microbe, parasite or virus in culture; assay type: cell-based; settings: H1N1, MDCK
[18] = human, microsomes
Human cytomegalovirus = assay: microbe, parasite or virus in culture; assay type: cell-based; settings: Human betaherpesvirus 5

COc1ccc2nc3cc(Cl)ccc3c(Nc3cc(CN4CCCC4)c(O)c(CN4CCCC4)c3)c2n1 [Pyronaridine, 4-[(7-Chloro-2-methoxybenzo[b][1,5]naph-thyridin-10-yl)amino]-2,6-bis(1-pyrrolidinylmethyl)phenol phosphate (1:4)]
EC50 (Vaccinia Virus): > 1.2 µM
EC90 (Vaccinia Virus): > 1.2 µM
EC50 (Dengue Virus 2): 3.2 µM
EC50 (Zika virus [1]): 3.2 µM
Kd (SARS-CoV-2 Spike RBD; pH5.2): 0.618 µM
Kd (SARS-CoV-2 Spike RBD; pH 7.4): 0.647 µM
Clint [2]: <7.4
Dextromethorphan: compound, t1/2 normalized to dextromethorphan control [2]: >11.5
t1/2 [2]: >3.1 h
EC50 (Zika virus [3]): 3.2 µM
CC50 (in vitro [4]): 7.5 µM
EC50 (Hepatitis C virus): 0.78 µM
EC90 (Hepatitis C virus): 1.71 µM
IC50 [5]: 2.07 µM
IC50 [6]: 1.3 ± 0.42 µM
IC50 ([6]; read-out: IC50 range against three strains of EBOV): 0.82 to 1.3 µM
EC50 [7]: > 7.5 µM
Relative Peak Area/Abundance MLM [8]: 100%
CC50 (HepG2 2.2.15): 3.54 µM
guinea pigs found dead on days 5 and 6 (Hartley guinea pigs): 2 of 6
guinea pigs found dead within 30 mins post injection (Hartley guinea pigs): 4 of 6
guinea pigs having any abnormal clinical observations (Hartley guinea pigs): 1 of 6
maximum tolerated dose (MTD), single dose (Hartley guinea pigs; ip): 125 mg/kg
maximum tolerated dose (MTD), single dose (Hartley guinea pigs; po): > 600 mg/kg
EC50 (MERS coronavirus): 3.2 µM
CC50 (in vitro [9]): > 40 µM
IC50 [10]: 2.72 ± 0.97 µM
IC50 ([10]; read-out: IC50 range against two strains of Marburg virus): 1.01 to 2.72 µM
EC50 (Yellow Fever virus): 3.2 µM
EC50 (Poliovirus 3): 3.2 µM
IC50 (SARS-CoV-2; Severe acute respiratory syndrome coronavirus 2, A549-ACE2, read-out: IC50 against SARS-CoV-2): < 0.2 µM
IC50 (SARS-CoV-2; read-out: IC50 against SARS-CoV-2): ~0.198 µM and 0.198 µM
EC50 (Norovirus): 3.5 µM
EC90 (Norovirus): 9.7 µM
EC50 (Tacaribe virus): > 3.2 µM
IC50 [11]: 2.75 µM
CC50 (in vitro [12]): > 100 µM
EC50 [13]: 1.8 µM
EC50 (Hepatitis B virus): 4.52 µM
EC90 (Hepatitis B virus): > 100 µM
guinea pigs found dead on days 14 and 17 post dose ([14]; ip): 2 of 3
measurable plasma levels through ([14]; ip): 168 h
AUCinf Mean ([14]; ip, 125 mg/kg): 17,430 hr * ng/ml
AUClast Mean ([14]; ip, 125 mg/kg): 16,565 hr * ng/ml
Cmax Mean ([14]; ip, 125 mg/kg): 523 ng/mL
T1/2 ([14]; ip, 125 mg/kg): 72.7 h
measurable plasma levels through ([14]; po): 336 h
AUCinf Mean ([14]; po, 600 mg/kg): 58,783 hr * ng/ml
AUClast Mean ([14]; po, 600 mg/kg): 50,964 hr * ng/ml
Cmax Mean ([14]; po, 600 mg/kg): 1800 ng/mL
T1/2 ([14]; po, 600 mg/kg): 90.5 h
Clint [15]: 15.5
Dextromethorphan: compound, t1/2 normalized to dextromethorphan control [15]: 16.7
t1/2 ([15]; monkey): 1.5 h
EC50 (Chikungunya virus): 3.2 µM
EC50 (Rift Valley fever virus): 3.2 µM
EC50 (Herpes Simplex Virus 1): > 6 µM
EC90 (Herpes Simplex Virus 1): > 6 µM
CC50 (HeLa cells): 4.11 ± 0.5 µM
CC50 (Vero): 3.2 µM
EC50 (Murine norovirus): > 40 µM
EC90 (Murine norovirus): > 40 µM
IC50 (Nipah virus): 0.064 µM
CC50 (in vitro [16]): 3.2 µM
IC50 [17]: 0.82 ± 0.19 µM
EC50 (Influenza A virus H1N1): 3.2 µM
Clint [18]: 11.4
Dextromethorphan: compound, t1/2 normalized to dextromethorphan control [18]: 6.2
t1/2 [18]: 2.037 h
EC50 (Human cytomegalovirus): > 1.2 µM
EC90 (Human cytomegalovirus): > 1.2 µM
